Test results as given in ChEMBL document CHEMBL6078616, “Seven-membered N-heterocycles as approved drugs and promising leads in medicinal chemistry as well as the metal-free domino access to their scaffolds” (Eur J Med Chem, 2024).

Legend:
HeLa = test: cells; settings: Homo sapiens
Description: Antiproliferative activity against human HeLa cells assessed as reduction in cell viability

[1] = target: T1, Protein deacetylase HDAC6 (Homo sapiens, UniProt Q9UBN7); test: Inhibition of HDAC6 (unknown origin)
T1 sequence (Q9UBN7 whole entry): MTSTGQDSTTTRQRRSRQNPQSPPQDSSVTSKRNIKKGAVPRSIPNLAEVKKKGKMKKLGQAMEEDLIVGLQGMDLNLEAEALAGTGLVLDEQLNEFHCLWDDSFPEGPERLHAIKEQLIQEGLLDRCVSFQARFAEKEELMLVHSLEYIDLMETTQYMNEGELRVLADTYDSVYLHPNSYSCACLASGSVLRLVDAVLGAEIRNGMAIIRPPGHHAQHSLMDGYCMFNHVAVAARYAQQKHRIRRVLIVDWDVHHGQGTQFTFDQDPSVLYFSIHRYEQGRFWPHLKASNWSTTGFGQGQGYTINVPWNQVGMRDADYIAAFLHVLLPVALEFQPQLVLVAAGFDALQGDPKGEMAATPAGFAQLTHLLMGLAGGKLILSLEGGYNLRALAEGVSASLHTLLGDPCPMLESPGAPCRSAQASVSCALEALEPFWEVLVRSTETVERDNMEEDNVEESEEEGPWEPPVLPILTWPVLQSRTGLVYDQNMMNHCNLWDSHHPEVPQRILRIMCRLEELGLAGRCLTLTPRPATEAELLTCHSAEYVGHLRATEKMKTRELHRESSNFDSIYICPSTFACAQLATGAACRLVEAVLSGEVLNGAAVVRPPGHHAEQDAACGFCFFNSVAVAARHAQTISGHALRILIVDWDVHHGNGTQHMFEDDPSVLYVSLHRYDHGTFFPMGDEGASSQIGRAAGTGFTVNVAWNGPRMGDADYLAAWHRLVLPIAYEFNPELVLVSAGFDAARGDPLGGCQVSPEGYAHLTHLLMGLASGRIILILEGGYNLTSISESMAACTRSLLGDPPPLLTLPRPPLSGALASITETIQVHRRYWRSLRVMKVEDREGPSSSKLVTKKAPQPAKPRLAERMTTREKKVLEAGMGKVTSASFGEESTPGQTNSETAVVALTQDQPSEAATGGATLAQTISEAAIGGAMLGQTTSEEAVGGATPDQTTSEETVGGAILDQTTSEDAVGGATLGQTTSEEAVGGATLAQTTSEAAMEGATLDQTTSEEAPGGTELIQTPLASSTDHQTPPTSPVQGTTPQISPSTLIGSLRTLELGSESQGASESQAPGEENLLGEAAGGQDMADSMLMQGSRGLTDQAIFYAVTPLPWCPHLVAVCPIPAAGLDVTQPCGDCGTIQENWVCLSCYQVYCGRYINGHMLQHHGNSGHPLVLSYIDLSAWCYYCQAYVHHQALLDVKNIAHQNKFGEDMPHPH

Trypanosoma cruzi = test: Antitrypanosomal activity against Trypanosoma cruzi Y strain trypomastigotes […] in African green monkey Vero cells assessed as inhibition of parasite growth incubated for 24 hrs by Neubauer chamber based analysis; format: functional, organism-based
Leishmania infantum = test: Antileishmanial activity against Leishmania infantum promastigote assessed as reduction in parasite growth after 72 hrs by MTT assay; format: functional, organism-based
[2] = Cytotoxicity against African green monkey Vero cells assessed as reduction in cell viability incubated for 72 hrs by MTT assay; format: toxicity, cell-based; settings: chlorocebus sabaeus
[3] = Cytotoxicity against human THP-1 cells assessed as reduction in cell viability; format: toxicity, cell-based
[4] = target: Sigma intracellular receptor 2 (Homo sapiens, UniProt Q5BJF2); test: Binding affinity to TMEM97 (unknown origin) assessed as inhibition constant
Sequence of Sigma intracellular receptor 2 (Q5BJF2 whole entry): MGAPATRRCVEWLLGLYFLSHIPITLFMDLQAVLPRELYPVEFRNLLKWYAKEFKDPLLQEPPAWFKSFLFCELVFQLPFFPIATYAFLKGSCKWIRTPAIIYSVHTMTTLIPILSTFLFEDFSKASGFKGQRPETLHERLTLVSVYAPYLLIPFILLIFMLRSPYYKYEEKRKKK

Histone deacetylase 1 = Histone deacetylase 1 (Homo sapiens, UniProt Q13547); test: Inhibition of HDAC1 (unknown origin)
Sequence of Histone deacetylase 1 (Q13547 whole entry): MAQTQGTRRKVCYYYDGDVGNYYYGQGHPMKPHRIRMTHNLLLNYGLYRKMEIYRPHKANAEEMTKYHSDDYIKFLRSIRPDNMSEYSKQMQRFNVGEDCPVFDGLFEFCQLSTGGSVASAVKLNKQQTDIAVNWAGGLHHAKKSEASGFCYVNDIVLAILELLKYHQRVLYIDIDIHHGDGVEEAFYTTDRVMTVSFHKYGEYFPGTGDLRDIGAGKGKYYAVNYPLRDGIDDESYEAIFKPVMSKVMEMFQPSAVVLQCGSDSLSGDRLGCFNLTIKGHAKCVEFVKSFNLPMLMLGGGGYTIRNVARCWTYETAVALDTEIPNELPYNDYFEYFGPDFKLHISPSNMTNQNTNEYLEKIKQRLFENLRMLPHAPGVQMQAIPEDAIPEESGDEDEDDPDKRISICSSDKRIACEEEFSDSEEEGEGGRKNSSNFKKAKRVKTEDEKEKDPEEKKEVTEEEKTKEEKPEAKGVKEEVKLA

Histone deacetylase 3 = Histone deacetylase 3 (Homo sapiens, UniProt O15379); test: Inhibition of HDAC3 (unknown origin)
Sequence of Histone deacetylase 3 (O15379 whole entry): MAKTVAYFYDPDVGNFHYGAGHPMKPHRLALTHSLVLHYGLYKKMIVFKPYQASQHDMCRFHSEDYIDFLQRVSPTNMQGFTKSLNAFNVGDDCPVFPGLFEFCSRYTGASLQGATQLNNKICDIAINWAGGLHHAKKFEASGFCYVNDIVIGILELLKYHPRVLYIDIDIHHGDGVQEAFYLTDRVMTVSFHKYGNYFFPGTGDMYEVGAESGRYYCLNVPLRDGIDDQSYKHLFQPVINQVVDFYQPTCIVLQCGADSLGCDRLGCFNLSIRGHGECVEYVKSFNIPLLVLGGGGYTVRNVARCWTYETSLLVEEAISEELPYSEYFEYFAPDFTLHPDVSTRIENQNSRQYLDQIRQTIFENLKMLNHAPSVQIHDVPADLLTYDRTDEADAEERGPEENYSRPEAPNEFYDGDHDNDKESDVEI

Histone deacetylase 4 = Histone deacetylase 4 (Homo sapiens, UniProt P56524); test: Inhibition of HDAC4 (unknown origin)
Sequence of Histone deacetylase 4 (P56524 whole entry): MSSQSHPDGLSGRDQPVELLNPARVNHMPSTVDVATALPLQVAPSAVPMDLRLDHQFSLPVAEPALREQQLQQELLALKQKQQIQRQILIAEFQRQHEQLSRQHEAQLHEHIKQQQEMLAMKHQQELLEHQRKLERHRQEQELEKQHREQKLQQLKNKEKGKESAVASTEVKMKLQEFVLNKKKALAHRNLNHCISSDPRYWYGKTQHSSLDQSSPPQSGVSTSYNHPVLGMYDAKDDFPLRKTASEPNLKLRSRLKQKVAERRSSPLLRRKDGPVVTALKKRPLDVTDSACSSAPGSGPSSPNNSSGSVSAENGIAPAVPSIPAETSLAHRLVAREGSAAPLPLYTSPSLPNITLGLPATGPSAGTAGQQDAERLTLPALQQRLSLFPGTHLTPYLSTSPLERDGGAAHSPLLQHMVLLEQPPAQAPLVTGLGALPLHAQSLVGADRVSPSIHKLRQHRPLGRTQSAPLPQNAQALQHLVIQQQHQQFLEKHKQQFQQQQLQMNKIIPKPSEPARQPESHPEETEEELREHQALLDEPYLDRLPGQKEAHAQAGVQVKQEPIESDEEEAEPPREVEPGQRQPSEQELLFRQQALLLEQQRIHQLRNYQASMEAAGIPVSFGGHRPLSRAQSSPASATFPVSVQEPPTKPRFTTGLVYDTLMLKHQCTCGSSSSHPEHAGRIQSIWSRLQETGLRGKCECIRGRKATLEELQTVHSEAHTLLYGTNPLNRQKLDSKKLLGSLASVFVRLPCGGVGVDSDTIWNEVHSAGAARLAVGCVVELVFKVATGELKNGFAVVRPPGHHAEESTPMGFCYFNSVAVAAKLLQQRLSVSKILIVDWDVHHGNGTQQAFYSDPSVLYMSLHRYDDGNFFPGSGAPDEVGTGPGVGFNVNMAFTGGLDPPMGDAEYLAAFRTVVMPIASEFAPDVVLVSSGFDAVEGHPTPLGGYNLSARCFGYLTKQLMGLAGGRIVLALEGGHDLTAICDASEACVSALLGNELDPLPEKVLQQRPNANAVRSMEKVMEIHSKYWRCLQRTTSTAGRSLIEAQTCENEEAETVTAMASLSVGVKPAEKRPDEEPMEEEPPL

Histone deacetylase 5 = Histone deacetylase 5 (Homo sapiens, UniProt Q9UQL6); test: Inhibition of HDAC5 (unknown origin)
Sequence of Histone deacetylase 5 (Q9UQL6 whole entry): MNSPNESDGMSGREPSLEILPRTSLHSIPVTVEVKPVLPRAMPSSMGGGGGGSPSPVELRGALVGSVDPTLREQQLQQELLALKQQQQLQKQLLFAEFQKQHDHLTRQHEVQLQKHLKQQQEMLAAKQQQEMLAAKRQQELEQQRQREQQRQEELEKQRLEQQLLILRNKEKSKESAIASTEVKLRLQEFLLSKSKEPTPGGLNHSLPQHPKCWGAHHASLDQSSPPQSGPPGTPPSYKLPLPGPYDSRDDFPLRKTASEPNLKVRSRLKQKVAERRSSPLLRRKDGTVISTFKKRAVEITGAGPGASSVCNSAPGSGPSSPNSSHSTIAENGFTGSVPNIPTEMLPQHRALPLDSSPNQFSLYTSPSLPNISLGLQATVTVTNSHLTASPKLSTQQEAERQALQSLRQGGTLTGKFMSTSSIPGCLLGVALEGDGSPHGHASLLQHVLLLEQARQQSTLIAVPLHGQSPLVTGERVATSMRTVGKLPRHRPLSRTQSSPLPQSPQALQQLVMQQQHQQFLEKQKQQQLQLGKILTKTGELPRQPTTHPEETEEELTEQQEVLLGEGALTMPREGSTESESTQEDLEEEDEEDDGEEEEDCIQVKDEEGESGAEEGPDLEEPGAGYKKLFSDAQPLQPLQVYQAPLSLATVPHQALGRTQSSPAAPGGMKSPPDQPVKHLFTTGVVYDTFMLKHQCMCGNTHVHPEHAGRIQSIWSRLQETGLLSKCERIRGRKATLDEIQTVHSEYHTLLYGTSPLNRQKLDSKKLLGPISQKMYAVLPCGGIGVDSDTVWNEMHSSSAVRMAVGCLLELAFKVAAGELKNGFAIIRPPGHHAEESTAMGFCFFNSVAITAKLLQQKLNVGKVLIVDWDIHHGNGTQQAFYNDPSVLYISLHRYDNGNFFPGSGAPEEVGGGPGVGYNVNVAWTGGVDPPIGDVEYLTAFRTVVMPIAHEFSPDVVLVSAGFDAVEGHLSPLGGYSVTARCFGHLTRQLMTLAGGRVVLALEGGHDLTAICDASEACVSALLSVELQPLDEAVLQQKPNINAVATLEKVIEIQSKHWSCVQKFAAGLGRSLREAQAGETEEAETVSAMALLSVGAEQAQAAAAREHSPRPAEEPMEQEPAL

Histone deacetylase 8 = target: T2, Histone deacetylase 8 (Homo sapiens, UniProt Q9BY41); test: Inhibition of HDAC8 (unknown origin)
T2 sequence (Q9BY41 whole entry): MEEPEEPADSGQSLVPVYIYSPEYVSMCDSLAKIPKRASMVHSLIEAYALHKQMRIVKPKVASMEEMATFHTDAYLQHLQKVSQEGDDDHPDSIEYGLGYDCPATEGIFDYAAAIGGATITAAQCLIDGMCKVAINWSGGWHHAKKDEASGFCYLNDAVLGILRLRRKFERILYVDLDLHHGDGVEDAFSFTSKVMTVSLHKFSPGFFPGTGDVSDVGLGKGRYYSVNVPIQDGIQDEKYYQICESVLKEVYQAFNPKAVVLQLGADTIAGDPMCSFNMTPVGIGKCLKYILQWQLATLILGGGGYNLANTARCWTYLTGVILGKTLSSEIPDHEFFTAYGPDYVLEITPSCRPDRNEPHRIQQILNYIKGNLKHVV

Histone deacetylase 9 = Histone deacetylase 9 (Homo sapiens, UniProt Q9UKV0); test: Inhibition of HDAC9 (unknown origin)
Sequence of Histone deacetylase 9 (Q9UKV0 whole entry): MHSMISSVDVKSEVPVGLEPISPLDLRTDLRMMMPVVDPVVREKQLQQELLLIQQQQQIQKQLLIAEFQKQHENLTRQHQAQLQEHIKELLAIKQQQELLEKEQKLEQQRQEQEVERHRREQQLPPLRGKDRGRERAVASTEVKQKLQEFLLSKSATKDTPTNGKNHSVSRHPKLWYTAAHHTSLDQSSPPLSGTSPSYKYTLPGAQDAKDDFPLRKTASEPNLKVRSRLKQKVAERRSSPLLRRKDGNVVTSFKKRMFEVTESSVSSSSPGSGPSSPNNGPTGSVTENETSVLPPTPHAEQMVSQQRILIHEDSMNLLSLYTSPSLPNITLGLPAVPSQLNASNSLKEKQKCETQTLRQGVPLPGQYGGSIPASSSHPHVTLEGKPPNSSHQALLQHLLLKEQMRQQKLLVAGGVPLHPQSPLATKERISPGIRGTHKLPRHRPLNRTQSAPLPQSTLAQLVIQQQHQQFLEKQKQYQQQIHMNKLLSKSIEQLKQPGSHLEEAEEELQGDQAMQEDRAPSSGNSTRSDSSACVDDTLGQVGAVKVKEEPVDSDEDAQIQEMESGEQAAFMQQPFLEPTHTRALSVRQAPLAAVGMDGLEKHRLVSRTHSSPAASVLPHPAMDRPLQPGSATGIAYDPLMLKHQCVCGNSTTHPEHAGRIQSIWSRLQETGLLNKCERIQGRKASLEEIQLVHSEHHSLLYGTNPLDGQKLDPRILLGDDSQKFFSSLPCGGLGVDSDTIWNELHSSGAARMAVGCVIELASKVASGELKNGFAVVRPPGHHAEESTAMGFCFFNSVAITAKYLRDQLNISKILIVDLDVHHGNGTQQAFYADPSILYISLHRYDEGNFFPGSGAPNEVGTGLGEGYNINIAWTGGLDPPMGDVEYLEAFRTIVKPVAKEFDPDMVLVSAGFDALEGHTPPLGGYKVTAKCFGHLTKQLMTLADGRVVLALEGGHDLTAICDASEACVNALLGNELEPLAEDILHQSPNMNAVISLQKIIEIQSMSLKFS

[5] = target: T3, Polyamine deacetylase HDAC10 (Homo sapiens, UniProt Q969S8); test: Inhibition of HDAC10 (unknown origin)
T3 sequence (Q969S8 whole entry): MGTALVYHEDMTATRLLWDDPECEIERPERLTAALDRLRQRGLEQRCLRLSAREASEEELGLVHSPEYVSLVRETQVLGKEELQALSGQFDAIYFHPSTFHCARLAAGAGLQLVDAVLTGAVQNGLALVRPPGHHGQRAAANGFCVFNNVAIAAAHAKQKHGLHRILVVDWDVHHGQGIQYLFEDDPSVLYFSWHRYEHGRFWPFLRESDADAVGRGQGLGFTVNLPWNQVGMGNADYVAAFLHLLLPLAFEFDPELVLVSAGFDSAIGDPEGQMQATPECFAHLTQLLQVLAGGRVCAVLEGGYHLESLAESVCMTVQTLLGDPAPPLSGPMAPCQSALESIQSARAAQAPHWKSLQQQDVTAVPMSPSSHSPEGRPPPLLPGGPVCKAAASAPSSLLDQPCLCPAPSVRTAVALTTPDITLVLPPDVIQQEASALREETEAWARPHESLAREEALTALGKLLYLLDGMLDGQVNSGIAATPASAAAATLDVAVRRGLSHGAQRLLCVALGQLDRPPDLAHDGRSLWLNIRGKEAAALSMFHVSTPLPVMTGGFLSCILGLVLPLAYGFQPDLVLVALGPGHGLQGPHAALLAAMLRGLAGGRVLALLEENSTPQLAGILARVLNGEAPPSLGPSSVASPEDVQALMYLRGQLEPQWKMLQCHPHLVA

Histone deacetylase 11 = target: T4, Histone deacetylase 11 (Homo sapiens, UniProt Q96DB2); test: Inhibition of HDAC11 (unknown origin)
T4 sequence (Q96DB2 whole entry): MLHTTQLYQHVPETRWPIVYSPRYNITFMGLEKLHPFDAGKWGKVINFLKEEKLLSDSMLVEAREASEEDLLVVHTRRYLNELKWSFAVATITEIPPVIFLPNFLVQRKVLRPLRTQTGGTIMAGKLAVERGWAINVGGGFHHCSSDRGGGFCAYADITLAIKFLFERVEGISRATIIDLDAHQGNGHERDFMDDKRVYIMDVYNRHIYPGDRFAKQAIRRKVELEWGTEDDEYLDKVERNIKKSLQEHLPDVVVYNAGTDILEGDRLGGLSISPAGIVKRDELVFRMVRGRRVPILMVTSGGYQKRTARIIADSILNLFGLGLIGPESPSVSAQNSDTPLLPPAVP

| SMILES | IC50 (Trypanosoma cruzi) | IC50 (Leishmania infantum) | CC50 at 72 h [2] | CC50 [3] | other results |
| --- | --- | --- | --- | --- | --- |
| O=C1Cc2cnn(-c3cc(Cl)cc(Cl)c3)c2-c2ccccc2N1 | – | – | – | – | IC50 (HeLa): 1.32 µM |
| O=C(NO)c1ccc(CN2c3ccccc3S(=O)(=O)C[C@H]3CCCC[C@H]32)cc1 | – | – | – | – | IC50 [1]: 0.1 µM |
| O=C1Cc2cnn(-c3cccc(Br)c3)c2-c2ccccc2N1 | – | – | – | – | IC50 (HeLa): 1.32 µM |
| COc1cccc([C@@H]2C[C@H]3Cc4cc(Br)c5ccccc5c4N2O3)c1 | 11.9 µM | 40.1 µM | > 1520 µM | > 1520 µM | – |
| O[C@@H]1Cc2cc(Br)c3ccccc3c2N[C@H](c2cccc(Cl)c2Cl)C1 | 3.3 µM | 11.8 µM | 40.1 µM | 59.8 µM | – |
| Brc1ccc([C@@H]2C[C@H]3Cc4ccc5ccccc5c4N2O3)s1 | 8.3 µM | 21.6 µM | > 809 µM | > 809 µM | – |
| FC(F)(F)c1ccc(-c2ccc3c(c2)C2CC3CCN2C2CCCC2)cc1 (centres undefined) | – | – | – | – | Ki [4]: 0.061 µM |
| OCCCN1CCC2CC1c1cc(-c3ccc(C(F)(F)F)cc3)ccc12 (centres undefined) | – | – | – | – | Ki [4]: 0.046 µM |
| Cc1ccc([C@@H]2C[C@H]3Cc4ccc5ccccc5c4N2O3)s1 | 11.3 µM | 10.9 µM | 498 µM | > 977 µM | – |
| O=C1Cc2cnn(-c3cc(Cl)cc(Cl)c3)c2-c2cc(Br)ccc2N1 | – | – | – | – | IC50 (HeLa): 1.32 µM |
| O=C(NO)c1ccc(CN2c3ccccc3SC[C@H]3CCCCC[C@H]32)cc1 | – | – | – | – | IC50 (Histone deacetylase 1): > 30 µM; IC50 (Histone deacetylase 3): > 30 µM; IC50 (Histone deacetylase 4): > 30 µM; IC50 (Histone deacetylase 5): > 30 µM; IC50 [1]: 0.03 µM; IC50 (Histone deacetylase 8): 6.7 µM; IC50 (Histone deacetylase 9): > 30 µM; IC50 [5]: > 30 µM; IC50 (Histone deacetylase 11): 1.2 µM |
| CN1CCN(c2ccc3c(c2)C2CC3CCN2C(=O)OCc2ccc(F)cc2)CC1 (centres undefined) | – | – | – | – | Ki [4]: 0.011 µM |
| O[C@@H]1Cc2cc(Br)c3ccccc3c2N[C@H](c2ccccc2Cl)C1 | 11.1 µM | 8.9 µM | 16 µM | 11.1 µM | – |
| CCN1CCN(c2ccc3c(c2)C2CCN(C(=O)OCc4ccccc4)C3C2)CC1 (centres undefined) | – | – | – | – | Ki [4]: 0.116 µM |
| Cc1ccc([C@@H]2C[C@H]3Cc4ccc5ccccc5c4N2O3)o1 | 9.6 µM | 15.4 µM | 94.5 µM | 22.5 µM | – |
| O=[N+]([O-])c1ccc([C@@H]2C[C@H]3Cc4ccc5ccccc5c4N2O3)o1 | 8.6 µM | 13.9 µM | 85.4 µM | 931 µM | – |
| O[C@@H]1Cc2cc(Br)c3ccccc3c2N[C@H](c2ccccc2)C1 | 12.2 µM | 617 µM | 25.3 µM | 24 µM | – |
| C[C@@H]1[C@H](O)[C@@H](C)/C=C/C=C/C=C/C=C/C=C/C=C/C=C/[C@H](O[C@@H]2O[C@H](C)[C@@H](O)[C@H](N)[C@@H]2O)C[C@@H]2O[C@](O)(C[C@@H](O)C[C@@H](O)[C@H](O)CC[C@@H](O)C[C@@H](O)CC(=O)O[C@H]1C)C[C@H](O)[C@H]2C(=O)O [AMPHOTERICIN B] | – | 0.01 µM | – | – | – |
| O=C1Cc2c([nH]c3ccc(Br)cc23)-c2ccccc2N1 [KENPAULLONE] | – | – | – | – | IC50 (HeLa): > 2 µM |
| CC1CS(=O)(=O)CCN1/N=C/c1ccc([N+](=O)[O-])o1 (centres undefined) [NIFURTIMOX] | – | – | 67.5 µM | – | – |
| COC(=O)Nc1nc2cc(C(=O)c3cccs3)ccc2[nH]1 [NOCODAZOLE] | – | – | – | – | IC50 (HeLa): > 2 µM |

Now from value to compound, other results behind:

| IC50 (Trypanosoma cruzi) | SMILES | IC50 (Leishmania infantum) | CC50 at 72 h [2] | CC50 [3] | other results |
| --- | --- | --- | --- | --- | --- |
| 2.5 µM | Cc1ccccc1[C@@H]1C[C@H](O)Cc2ccc3ccccc3c2N1 | 36.2 µM | 36.1 µM | 41.6 µM | – |
| 8.6 µM | O=[N+]([O-])c1ccc([C@@H]2C[C@H]3Cc4ccc5ccccc5c4N2O3)cc1 | 5 µM | > 903 µM | > 903 µM | – |
| 7.1 µM | Cc1ccccc1[C@@H]1C[C@H](O)Cc2cc(Br)c3ccccc3c2N1 | 7.7 µM | 113 µM | 7.1 µM | – |
| 6.3 µM | O[C@@H]1Cc2cc(Br)c3ccccc3c2N[C@H](c2cccc(Cl)c2)C1 | 48.2 µM | 10 µM | 45.1 µM | – |
